Assay results from PubChem BioAssay (NCI).
≈ marks a conversion by molar mass, not a printed value. Where “and” joins values, the source holds several entries; their conditions need not be identical. Identical values can stand only once.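 Cells were grown in 96-well plates and exposed to each compound for 48 hours at five concentrations; endpoints were interpolated linearly between bracketing concentrations, or set to the highest concentration if not reached. GI50 = concentration required for 50% inhibition of growth. The concentration for full growth arrest is given as TGI.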 Calls of active or inactive are those of the source. Cut-off read from the data, not from the text of the source: active = GI50 below about 0.43 µM; inactive = the rest.

How the values were obtained:
Assay in all cases: DTP human tumour cell line panel, 48 h
[1] = test system: KM20L2 colon
[2] = test system: XF 498 CNS
[3] = test system: MDA-N
[4] = test system: HOP-18 NSCLC
[5] = test system: DMS 273 small cell lung
[6] = test system: DMS 114 small cell lung
[7] = test system: LXFL 529 NSCLC
[8] = test system: RXF-631 renal

SMILES: C#CCNC(=O)NC(CCCCNC(=O)OCc1ccccc1)C(=O)OCc1ccccc1 (stereo not drawn)
- TGI [1]: > 100 µM
- TGI [2]: 35.7 µM
- TGI [3]: > 68.3 µM
- TGI [4]: > 68.2 µM
- TGI [5]: > 100 µM
- TGI [6]: > 100 µM
- TGI [7]: > 100 µM

SMILES: CC(=O)OCC(CC[CH2][Sn]([Cl])([Cl])[c]1ccccc1)OC(C)=O (stereo not drawn)
- GI50 [1]: 24.8 µM
- TGI [1]: 52 µM
- GI50 [2]: 17.8 µM
- TGI [2]: 32.2 µM
- GI50 [4]: 16.5 µM
- TGI [4]: 40 µM
- GI50 [5]: 20.6 µM
- TGI [5]: 43.3 µM
- GI50 [7]: 14 µM
- TGI [7]: 27 µM

SMILES: Cn1nc(-c2ccccc2)c(C(=O)/C=C/c2ccc(Cl)cc2)c(N2CCOCC2)c1=O
- TGI [1]: 13.8 µM
- TGI [4]: 17 µM
- TGI [5]: 13.8 µM
- TGI [8]: 23.2 µM
- TGI [6]: 9.83 µM
- TGI [7]: 9.89 µM

SMILES: O=C(Cc1ccccc1)C(c1ccccc1)S(=O)(=O)c1ccccc1 (stereo not drawn)
- TGI [1]: > 100 µM
- TGI [2]: > 100 µM
- TGI [4]: > 100 µM
- TGI [5]: > 100 µM
- TGI [8]: > 100 µM
- TGI [6]: > 100 µM
- TGI [7]: > 100 µM

SMILES: CCOC(=O)C(Cc1ccc(N(CCCl)CCCl)cc1)NC(=O)C(Cc1ccccc1)NC(C)=O (stereo not drawn)
- TGI [3]: > 0.371 µM

SMILES: Cc1ccc(C2=Nc3ccccc3SC(c3cccc4c3OCO4)C2)cc1 (stereo not drawn)
- TGI [1]: 41.2 µM
- TGI [2]: 29 µM
- TGI [4]: 38.4 µM
- TGI [5]: 40.2 µM
- TGI [7]: 28.9 µM

SMILES: C[P+]1(c2ccccc2)CCCCC1
- TGI [1]: > 100 µM
- TGI [5]: > 100 µM
- TGI [8]: > 100 µM
- TGI [6]: > 100 µM
- TGI [7]: > 100 µM

SMILES: Cc1cc2c(c(=O)o1)C1=S(SC(c3ccccc3)=C1)S2 (stereo not drawn)
- TGI [3]: > 100 µM

SMILES: N#C/C(=C1\OC(=N)C(c2ccc(Cl)cc2Cl)C1=O)c1ccc(Cl)cc1Cl (stereo not drawn)
- TGI [1]: > 100 µM
- TGI [2]: > 100 µM
- TGI [5]: > 100 µM
- TGI [8]: > 100 µM
- TGI [6]: > 100 µM
- TGI [7]: > 100 µM

SMILES: O=C(CO)C1CC2C=CC1C2 (stereo not drawn)
- TGI [2]: > 100 µM
- TGI [5]: > 100 µM
- TGI [8]: > 100 µM
- TGI [6]: > 100 µM
- TGI [7]: > 100 µM

SMILES: CC(N)CC(=O)O (stereo not drawn)
- TGI [1]: > 5000 µM
- TGI [4]: > 5000 µM
- TGI [5]: > 5000 µM
- TGI [6]: > 5000 µM
- TGI [7]: > 5000 µM

SMILES: COc1c(CC=C(C)C)c(O)c(C(CC(C)C)c2c(O)c(CC=C(C)C)c(O)c(C(C)=O)c2O)c(O)c1C(C)=O (stereo not drawn)
- TGI [2]: 2.09 µM
- TGI [3]: 8.08 µM
- TGI [4]: 14.7 µM
- TGI [5]: 1.33 µM
- TGI [8]: 6.94 µM
- TGI [6]: 0.575 µM

SMILES: CC1=NNC(=S)NCCCN2CCN(CCCNC(=S)NN=C(C)C=NNC(=S)NCCCN3CCN(CCCNC(=S)NN=C1)CC3)CC2
- TGI [3]: > 100 µM

SMILES: Cc1ccc(NC(=O)/C(C#N)=C/c2ccccc2)c(C)c1
- TGI [1]: > 100 µM
- TGI [2]: > 100 µM
- TGI [4]: > 100 µM
- TGI [5]: > 100 µM
- TGI [6]: > 100 µM
- TGI [7]: > 100 µM

SMILES: c1ccc(CN2COc3c(ccc4c5c(ccc34)CN(Cc3ccccc3)CO5)C2)cc1
- TGI [1]: > 100 µM
- TGI [3]: > 100 µM
- TGI [4]: > 100 µM
- TGI [8]: > 100 µM
- TGI [6]: > 100 µM
- TGI [7]: > 100 µM

SMILES: CC(C)OC(=O)C1Cc2c([nH]c3ccccc23)C(c2ccccc2)N1 (stereo not drawn)
- TGI [1]: > 100 µM
- TGI [2]: > 100 µM
- TGI [5]: > 100 µM
- TGI [6]: > 100 µM
- TGI [7]: > 100 µM

SMILES: NC(=O)CC(N)c1nn[nH]n1 (stereo not drawn)
- TGI [3]: > 100 µM

SMILES: C=C1C=CC2(Br)OC3CC(C)(Cl)C(Br)CC13C2(C)C (stereo not drawn)
- TGI [1]: 49.7 µM
- TGI [2]: 27.9 µM
- TGI [5]: > 100 µM
- TGI [8]: > 100 µM
- TGI [6]: 32.4 µM
- TGI [7]: > 100 µM

SMILES: COc1c(OC(C)C)cc2cc(O)c(C(=O)NC3Cc4ccc(c(Cl)n4)O[C@@H]4C=C5C#C/C(=C\C#CC6OC56C4OC4CC(C)(O)C(O)C(C)O4)C(OC4CC(O)C(N(C)C)C(C)O4)COC3=O)cc2c1OC (stereo partly drawn)
- outcome [1]: inactive
- outcome [2]: inactive
- TGI [3]: > 36.3 µM
- outcome [4]: inactive
- GI50 [5]: 0.279 µg/mL
- TGI [5]: 12.7 µg/mL
- outcome [8]: inactive
- GI50 [6]: 0.926 µg/mL (≈ 0.899 µM)
- TGI [6]: 10.4 µg/mL
- outcome [7]: inactive

SMILES: O=c1[nH]c2ccccc2n1C1CCN(CCCC(c2ccc(F)cc2)c2ccc(F)cc2)CC1
- TGI [1]: 5.87 µM
- TGI [2]: 11.6 µM
- TGI [3]: 21.4 µM
- TGI [4]: 29 µM
- TGI [5]: 11.9 µM
- TGI [6]: 6.52 µM
- TGI [7]: 13.4 µM

SMILES: CN(C)c1nc(N)c(C#N)c(C#N)c1C#N
- TGI [3]: > 10 µM

SMILES: N#CNC1=NC(N)C(c2nc3ccccc3[nH]2)=C(CCCC(=O)Nc2cccc([N+](=O)[O-])c2)N1 (stereo not drawn)
- TGI [1]: > 100 µM
- TGI [2]: > 100 µM
- TGI [4]: > 100 µM
- TGI [5]: > 100 µM
- TGI [6]: > 100 µM
- TGI [7]: > 100 µM

SMILES: Nc1nc(C(=O)O)c(N=Nc2ccccc2)c(=O)[nH]1
- TGI [3]: > 100 µM

SMILES: CCOC(=O)C(CCCNC(=O)OC(C)(C)C)N(Cc1ccc(OC)cc1OC)C(=O)CC(=O)CP(=O)(OCC)OCC (stereo not drawn)
- TGI [1]: > 100 µM
- TGI [4]: > 100 µM
- TGI [5]: > 100 µM
- TGI [8]: > 100 µM
- TGI [6]: > 100 µM
- TGI [7]: > 100 µM

SMILES: [Cl][Cu][Cl]
- GI50 [3]: > 10 µM
- TGI [3]: > 10 µM

SMILES: C/C(=N\NC(=O)C(N)=O)c1c(O)cc(C)oc1=O
- TGI [1]: > 100 µM
- TGI [8]: > 100 µM
- TGI [7]: > 100 µM

SMILES: Cc1ccc(S(=O)(=O)NC(=O)OC23COCN2COC3)cc1
- TGI [3]: > 100 µM

SMILES: CN1CCCC1c1cccnc1.O=C(O)c1ccccc1O.O=C([O-])c1ccccc1[OH2+].O=C([O-])c1ccccc1[OH2+].[Mn+2] (stereo not drawn)
- GI50 [3]: > 100 µM
- TGI [3]: > 100 µM

SMILES: C/C(=N\NC(=S)N1CCN(c2ccccn2)CC1)c1ncccn1
- TGI [2]: 13.8 µM
- GI50 [3]: 0.233 µM
- TGI [3]: 14.8 µM
- GI50 [4]: 4.4 µM
- TGI [4]: 8.39 µM and 20.3 µM
- GI50 [5]: 0.0311 µM
- TGI [5]: 3.71 µM and 15.2 µM
- TGI [6]: 0.271 µM and 1.08 µM

SMILES: CC(C)(C)c1cc(C(=O)O)c2c(c1)C(=O)OC2(c1ccccc1)c1ccccc1C(=O)O (stereo not drawn)
- TGI [1]: > 100 µM
- TGI [2]: > 100 µM
- TGI [4]: > 100 µM
- TGI [5]: > 100 µM
- TGI [6]: > 100 µM
- TGI [7]: > 100 µM

SMILES: COc1ccc(OC)c(Cc2cnc3nc(N)nc(N)c3c2C)c1
- TGI [3]: > 57.7 µM

SMILES: O=c1[nH]c(=S)[nH]c(-c2ccccc2)c1Cc1c(O)ccc2ccccc12
- TGI [3]: 89.5 µM

SMILES: CC1CCC2(C)C(CC=C(C=O)C2(O)C=O)C12CO2 (stereo not drawn)
- TGI [1]: 6.09 µM
- TGI [2]: 7.21 µM
- TGI [5]: 7.61 µM
- TGI [8]: 5.77 µM
- TGI [6]: 4.84 µM
- TGI [7]: 3.33 µM

SMILES: Cc1cc(O)c2c3c(ccc2c1)C(=O)c1c(O)cccc1C3=O
- TGI [3]: 0.353 µM

SMILES: O=C(c1c(O)cc(O)cc1O)C1Cc2ccccc21 (stereo not drawn)
- TGI [1]: > 100 µM
- TGI [4]: > 100 µM
- TGI [5]: > 100 µM
- TGI [6]: > 100 µM
- TGI [7]: > 100 µM

SMILES: COC1=C(OC)[C@]2(OC)c3c(O)c(OC)c4c(c3O[C@@]23O[C@@H](c2ccccc2)CC=C3C1=O)[C@@H](OC)C[C@H](c1ccccc1)O4
- GI50 [3]: 0.34 µM
- TGI [3]: 1.16 µM
